From patent US9610319B2, “Method of treating cancer” (Research Foundation of the City University of New York, priority 2014, dated 2017)
Bridge positions count the residues as written; N and C are the ends. Ends that are not written are not given here.

Columns and labels:
[1] = test system: cell lines IMEA7 and BNL.CL2; assay: In vitro cell viability, immunoblotting and wound healing assays on liver cancer cells; assay type: cell-based
Description: A novel teretoxin, Tv1 (TR(I/L)[…] (SEQ ID NO: 1)) from a terebrid snail, terebrid variegata was structurally identified and found to be biologically active. […] Tv1 was analyzed in cell viability, immunoblotting, and wound healing assays to characterize its function on liver cancer cells. […] Structural characterization of Terebra variegata peptide toxin Tv1 was accomplished using a total venom sample of 4 ng, an amount that would previously make characterization of venom components almost impossible.

[2] = test system: BNL.1MEA.7.R.1 cells; assay: Mouse tumor study: BNL.1MEA.7.R.1 cells injected into right leg, intraperitoneal Tv1; assay type: in vivo, Balb/c female mice
Description: Balb/c female mice (20-35 g) were used for mouse studies. Animals were maintained on standard animal diet, in a controlled room (22±1° C. @ 35-50% RH) for a week prior to experiments. Animals were randomly divided into three groups: negative control (only PBS), high-dose and low-dose ZCD groups. Each group had five mice under sterile condition. On the day nine, the BNL.1MEA.7.R.1 cells (5 million) were injected into the right leg of each animal and allowed the tumors to grow. After two weeks the animals were checked for tumor growth and the sizes of tumors were recorded using calipers. The treatment was started after finding tumors in all groups.
The concentration of the Tv1 formulations was prepared at 0.08 mg/kg body weight (low dose) and 0.80 mg/kg body weight (high dose) for the intraperitoneal injections. Control group of animals received PBS. The drug administrations were continued for seven days and then further after a five day interval treatment was continued for another eight days and tumor sizes were measured every day.
In the high-dose group, the tumor volumes were 286.08±39.9 mm^3 at the beginning of the treatment and were 434.28±286 mm^3 after the last day which is an increase of only 52%.

[3] = test system: Nereis virens (polychaete worms); assay: Bioactivity assay on polychaete worms; assay type: in vivo
Description: To determine if synthetic Tv1 is biologically active, the peptide was injected into polychaete worms, which are the natural prey of terebrid snails. […] Inhibition of nicotinic receptors at the neuromuscular junction can result in paralysis.
Nereis virens (polychaete worms) (less than 3.5 g) were maintained at 4° C. in salt water prior to injection. Worms were laid on a Styrofoam block and injected with an insulin syringe. A modified needle cap was used to maintain a consistent 1.5 mm depth of needle puncture. Worms were injected between the 5th and 7th segments on the ventral anterior end with the aim of targeting the ventral nerve cord. Control worms were injected with 12 μl of 0.9% normal saline solution (NSS). Lyopholized samples of Tv1 toxin were resuspended in NSS and diluted to a concentration of 20 μM which was confirmed using a ThermoScientific Nanodrop 2000c spectrophotometer. At least three worms were used for each trial—one saline control and two injected with Tv1 toxin for a total of three trials. After injection, the worms were transferred to side-by-side containers filled with room temperature salt water. The worm movements were then recorded by video in order to evaluate the effects of the toxin over a period of at least 3.5 hours. Varying temperature elicits different phenotypic responses from N. virens: water at 4° C. has an anesthetizing effect, while room temperature prompts a vigorous response. Taking the worms from 4° C. water and immersing them in room temperature water (25° C.) immediately after injection stimulates an active response from the worms, making it easier to recognize paralytic (or partially paralytic) effects induced by a novel toxin in the first minutes after injection. Worms were observed every other day for two weeks after injection. […] Each video was analyzed and annotated […] by each observer. Observations for each worm began at the time of injection. The numerical results of the two independent viewings were averaged together if results were similar, if two viewers disagreed, a third observer was employed to review the disputed section of video. Results of relative activity vs. time were plotted to quantify the phenotypic effects of the toxin and saline injection on N. virens.

TR(I/L)CCGCYWNGSKDVCSQSCC [Tv1, novel teretoxin from terebrid snail Terebra variegata, chemically synthesized; Ile or Leu at position 3]
selectivity tumor cell versus normal cells in vitro ([1]; cell lines IMEA7 and BNL.CL2): selectively targets tumor cell versus normal cells | death of normal versus cancer cells compared to sorafenib and doxorubicin ([1]; cell viability, immunoblotting, wound healing assays): prevented the death of normal versus cancer cells at high instance | effect on growth of tumor ([2]; both low and high doses): effective in significantly decreasing the growth of tumor | tumor volume after the last day ([2]; high dose 0.80 mg/kg body weight, intraperitoneal, after the last day): 434.28±286 mm^3 | tumor volume at the beginning of the treatment ([2]; high dose 0.80 mg/kg body weight, intraperitoneal, beginning of treatment): 286.08±39.9 mm^3 | increase of tumor volume ([2]; high dose 0.80 mg/kg, beginning to last day (negative control 418%)): 52% | average tumor volume at the beginning of the treatment ([2]; low dose 0.08 mg/kg body weight, intraperitoneal, day one): 180±36.74 mm^3 | average tumor volume at the end of treatment ([2]; low dose 0.08 mg/kg body weight, intraperitoneal, end of treatment): 485±175.07 mm^3 | increase of average tumor volume ([2]; low dose 0.08 mg/kg, day one to end of treatment (negative control 418%)): 170% | selectivity tumor cell versus normal cells in vivo ([2]; mice models expressing IMEA7 tumor cells subcutaneously): selectively targets tumor cell versus normal cells | body weights throughout the treatment period ([2]; monitored throughout treatment): not significantly changed | % Time spent, activity at 0 ([3]; 20 μM injected, activity at 0): 0.995% | % Time spent, activity between 0 and 1 ([3]; 20 μM injected, activity between 0 and 1): 74.47% | % Time spent, activity between 1 and 2 ([3]; 20 μM injected, activity between 1 and 2): 19.98% | % Time spent, activity between 2 and 3 ([3]; 20 μM injected, activity between 2 and 3): 4.55%

TRICCGCYWNGSKDVCSQSCC (disulfide 7-16, 4-20, 5-21; listed as Terebra variegata) [Tv1 (Ile), Tv1 peptide with Ile at the third position]
phenotypic effect of injection into worms ([3]; injections of 20 μM): partial paralysis
